Test system: pancreatic cancer cell line BxPC-3
Experiment: In vitro survival assay (MTT) for anti-pancreatic cancer effects
Assay type: cell-based
Details: Homo sapiens, BxPC-3 cells, 48 hours treatment, 0.03-30 μg/ml, read-out: IC50 (half inhibition concentration), survival of pancreatic cancer cells
Method: The compound 4--2,3-dimethoxy-6-methyl-5-(3,7,11-trimethyl-dodeca-2,6,10-trienyl)-cyclohex-2-enone of the formula (2) is explained below as an example for the present invention. The anti-cancer effects of 4--2,3-dimethoxy-6-methyl-5-(3,7,11-trimethyl-dodeca-2,6,10-trienyl)-cyclohex-2-enone was assessed using 3-(4,5-dimethylthiazol-2-yl)-2,5-diphenyltetrazolium bromide MTT) assay according to the anti-cancer drug screening model of National Cancer Institute (NCI) to analyze survival rates on pancreatic cancer cell line BxPC-3. […] Therefore, cyclohexenone compounds from Antrodia camphorata can be used for inhibiting the survival of pancreatic cancer cells and further be applied for the treatment of pancreatic cancer. The details of the examples are described as follows:
Inhibiting effects of pancreatic cancer cells by cyclohexenone compounds of Antrodia camphorata from example 1 were assessed according to the anticancer-drug screening model of National Cancer Institute (NCI). […] Survival of cell was analyzed using MTT assay. […]
The BxPC-3 cells were cultivated in RPMI 1640 medium supplemented with 10% fetal bovine serum, 100 IU/ml of Penicillin and […] of Streptomycin at 37° C., 5% CO2 for 24 hours. […] The absorbances were measured at 570 nm with an ELISA Reader to determine the survival rates.

COC1=C(OC)C(O)C(C/C=C(\C)CC/C=C(\C)CCC=C(C)C)C(C)C1=O (stereo not shown) [formula 2, 4--2,3-dimethoxy-6-methyl-5-(3,7,11-trimethyl-dodeca-2,6,10-trienyl)-cyclohex-2-enone]
IC50: 1.44 µg/mL

— patent publication US8236860B2, “Inhibition of the survival of pancreatic cancer by cyclohexenone compounds from Antrodia camphorata” (Golden Biotechnology Corporation, priority 2009, dated 2012)
